SMILES strings stand for the structures.

The Ki is the dissociation constant of the complex between target and ligand, obtained from inhibition or displacement.

Experiment [1] concerns the target T1, Glutamate receptor 2 (Homo sapiens, UniProt P42262). As to the kind of experiment: Antagonist activity at closed state of GluA2Qflip isoform (unknown origin) expressed in HEK293 cells assessed as reduction in glutamate-induced current response at 1 uM in presence of 0.1 mM glutamate by whole cell assay relative to control. The format is cell-based.
The target in experiment [2] is T1, Glutamate receptor 2. The experiment in a line: Antagonist activity at open state of GluA2Qflip isoform (unknown origin) expressed in HEK293 cells assessed as reduction in glutamate-induced current response at 1 uM in presence of 3 mM glutamate by whole cell assay relative to control. In kind it is cell-based.
For experiment [3], the target named is T1, Glutamate receptor 2. As to the kind of experiment: Antagonist activity at closed state of GluA2Qflip isoform (unknown origin) expressed in HEK293 cells assessed as reduction in glutamate-induced current response at 2.5 uM in presence of 0.1 mM glutamate by whole cell assay relative to control. In kind it is cell-based.
Experiment [4] has as its target T1, Glutamate receptor 2. The experiment in a line: Antagonist activity at open state of GluA2Qflip isoform (unknown origin) expressed in HEK293 cells assessed as reduction in glutamate-induced current response at 2.5 uM in presence of 3 mM glutamate by whole cell assay relative to control. The format is cell-based.
The target of experiment [5] is T1, Glutamate receptor 2. As to the kind of experiment: Antagonist activity at closed state of GluA2Qflip isoform (unknown origin) expressed in HEK293 cells assessed as reduction in glutamate-induced current response in presence of 0.1 mM glutamate by whole cell assay. The format is cell-based.
The target of experiment [6] is T1, Glutamate receptor 2. As to the kind of experiment: Antagonist activity at open state of GluA2Qflip isoform (unknown origin) expressed in HEK293 cells assessed as reduction in glutamate-induced current response in presence of 3 mM glutamate by whole cell assay relative to control. In kind it is cell-based.
In experiment [7] the target is T2, Glutamate receptor 1 (Homo sapiens, UniProt P42261). The experiment in a line: Antagonist activity at closed state of GluA1 (unknown origin) assessed as reduction in glutamate-induced current response in presence of 40 to 50 uM glutamate relative to control.
T2 sequence (P42261 whole entry): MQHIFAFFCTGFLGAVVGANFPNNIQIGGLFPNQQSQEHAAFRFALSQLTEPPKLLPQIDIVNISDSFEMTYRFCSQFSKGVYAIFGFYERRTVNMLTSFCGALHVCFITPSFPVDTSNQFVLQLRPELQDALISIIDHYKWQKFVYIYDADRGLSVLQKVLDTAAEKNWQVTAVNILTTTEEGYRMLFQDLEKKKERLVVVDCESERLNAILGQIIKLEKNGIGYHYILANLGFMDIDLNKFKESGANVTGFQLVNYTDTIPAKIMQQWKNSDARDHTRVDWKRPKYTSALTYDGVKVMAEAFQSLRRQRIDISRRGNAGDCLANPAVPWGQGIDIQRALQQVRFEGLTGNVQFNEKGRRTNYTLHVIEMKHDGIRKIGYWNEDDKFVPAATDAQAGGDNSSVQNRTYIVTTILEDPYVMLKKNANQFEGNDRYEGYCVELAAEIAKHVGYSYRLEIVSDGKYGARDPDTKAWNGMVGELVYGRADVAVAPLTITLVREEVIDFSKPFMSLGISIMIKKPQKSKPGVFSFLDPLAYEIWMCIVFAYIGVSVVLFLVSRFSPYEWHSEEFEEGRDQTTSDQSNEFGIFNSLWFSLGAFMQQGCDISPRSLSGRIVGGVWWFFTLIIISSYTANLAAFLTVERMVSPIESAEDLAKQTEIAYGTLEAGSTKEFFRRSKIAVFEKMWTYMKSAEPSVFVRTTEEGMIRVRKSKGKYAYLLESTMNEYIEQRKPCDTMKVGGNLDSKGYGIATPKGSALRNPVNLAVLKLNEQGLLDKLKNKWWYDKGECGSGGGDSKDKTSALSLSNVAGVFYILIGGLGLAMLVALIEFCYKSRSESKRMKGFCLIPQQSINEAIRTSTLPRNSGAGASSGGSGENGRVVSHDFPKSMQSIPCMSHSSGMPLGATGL
For experiment [8], the target named is T2, Glutamate receptor 1. The experiment in a line: Antagonist activity at open state of GluA1 (unknown origin) assessed as reduction in glutamate-induced current response in presence of 2 mM glutamate relative to control.
Experiment [9] deals with T3, Glutamate receptor 3 (Homo sapiens, UniProt P42263). As to the kind of experiment: Antagonist activity at closed state of GluA3 (unknown origin) assessed as reduction in glutamate-induced current response in presence of 100 uM glutamate relative to control.
T3 sequence (P42263 whole entry): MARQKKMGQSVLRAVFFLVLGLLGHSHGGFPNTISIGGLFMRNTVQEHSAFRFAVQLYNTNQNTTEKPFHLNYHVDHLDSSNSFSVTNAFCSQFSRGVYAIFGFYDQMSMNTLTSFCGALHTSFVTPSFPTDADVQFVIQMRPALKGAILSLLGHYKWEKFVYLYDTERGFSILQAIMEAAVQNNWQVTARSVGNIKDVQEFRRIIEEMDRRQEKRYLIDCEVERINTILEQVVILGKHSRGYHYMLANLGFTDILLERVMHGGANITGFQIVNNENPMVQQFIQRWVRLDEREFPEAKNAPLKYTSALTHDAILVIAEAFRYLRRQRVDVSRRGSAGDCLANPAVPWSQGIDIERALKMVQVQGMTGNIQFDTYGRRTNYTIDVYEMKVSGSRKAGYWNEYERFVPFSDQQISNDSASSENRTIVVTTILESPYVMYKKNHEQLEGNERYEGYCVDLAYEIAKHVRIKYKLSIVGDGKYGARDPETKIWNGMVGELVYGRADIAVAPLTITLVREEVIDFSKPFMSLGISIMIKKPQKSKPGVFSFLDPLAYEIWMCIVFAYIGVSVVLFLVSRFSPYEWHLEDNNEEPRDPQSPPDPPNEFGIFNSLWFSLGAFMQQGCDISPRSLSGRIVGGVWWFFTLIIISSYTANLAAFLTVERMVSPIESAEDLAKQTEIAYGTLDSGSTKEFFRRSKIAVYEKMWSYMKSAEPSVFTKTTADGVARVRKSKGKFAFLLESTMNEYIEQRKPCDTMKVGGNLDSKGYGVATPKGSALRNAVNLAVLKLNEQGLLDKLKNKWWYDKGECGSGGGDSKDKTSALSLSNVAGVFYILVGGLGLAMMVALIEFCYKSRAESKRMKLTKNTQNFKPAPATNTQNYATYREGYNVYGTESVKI
For experiment [10], the target named is T3, Glutamate receptor 3. As to the kind of experiment: Antagonist activity at open state of GluA3 (unknown origin) assessed as reduction in glutamate-induced current response in presence of 3 mM glutamate relative to control.
Experiment [11] deals with T4, Glutamate receptor 4 (Homo sapiens, UniProt P48058). As to the kind of experiment: Antagonist activity at closed state of GluA4 (unknown origin) assessed as reduction in glutamate-induced current response in presence of 100 uM glutamate relative to control.
T4 sequence (P48058 whole entry): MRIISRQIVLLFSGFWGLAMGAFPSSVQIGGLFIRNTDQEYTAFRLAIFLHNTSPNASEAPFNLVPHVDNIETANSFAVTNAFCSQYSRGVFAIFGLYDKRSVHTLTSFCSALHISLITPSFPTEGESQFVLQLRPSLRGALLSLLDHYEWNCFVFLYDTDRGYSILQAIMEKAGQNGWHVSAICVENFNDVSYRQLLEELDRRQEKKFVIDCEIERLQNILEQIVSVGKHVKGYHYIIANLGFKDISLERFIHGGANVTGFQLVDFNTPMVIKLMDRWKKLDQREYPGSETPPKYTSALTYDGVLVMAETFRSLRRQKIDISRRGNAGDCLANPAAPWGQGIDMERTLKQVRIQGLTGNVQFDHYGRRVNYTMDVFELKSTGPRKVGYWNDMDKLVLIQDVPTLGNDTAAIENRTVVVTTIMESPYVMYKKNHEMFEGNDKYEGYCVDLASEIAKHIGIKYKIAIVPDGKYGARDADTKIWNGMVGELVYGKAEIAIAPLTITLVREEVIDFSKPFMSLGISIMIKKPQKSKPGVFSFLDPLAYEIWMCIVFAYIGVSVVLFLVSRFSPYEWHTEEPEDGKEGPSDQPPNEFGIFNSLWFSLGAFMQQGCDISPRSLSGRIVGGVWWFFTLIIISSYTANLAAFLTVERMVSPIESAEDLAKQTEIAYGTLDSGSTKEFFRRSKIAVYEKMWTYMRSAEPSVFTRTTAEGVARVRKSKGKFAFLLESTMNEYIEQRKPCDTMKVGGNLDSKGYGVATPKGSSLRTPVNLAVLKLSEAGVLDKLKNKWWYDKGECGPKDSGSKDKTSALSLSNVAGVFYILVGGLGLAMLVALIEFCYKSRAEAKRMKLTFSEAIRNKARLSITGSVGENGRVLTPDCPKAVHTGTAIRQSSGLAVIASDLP
Experiment [12] deals with T4, Glutamate receptor 4. As to the kind of experiment: Antagonist activity at open state of GluA4 (unknown origin) assessed as reduction in glutamate-induced current response in presence of 3 mM glutamate relative to control.
Experiment [13] addresses T2, Glutamate receptor 1. As to the kind of experiment: Antagonist activity at closed state of GluA1 (unknown origin) assessed as reduction in glutamate-induced current response in presence of 40 to 50 uM glutamate.
For experiment [14], the target named is T2, Glutamate receptor 1. The experiment in a line: Antagonist activity at open state of GluA1 (unknown origin) assessed as reduction in glutamate-induced current response in presence of 2 mM glutamate.
The target of experiment [15] is T3, Glutamate receptor 3. As to the kind of experiment: Antagonist activity at closed state of GluA3 (unknown origin) assessed as reduction in glutamate-induced current response in presence of 100 uM glutamate.
Experiment [16] concerns the target T3, Glutamate receptor 3. As to the kind of experiment: Antagonist activity at open state of GluA3 (unknown origin) assessed as reduction in glutamate-induced current response in presence of 3 mM glutamate.
Experiment [17] concerns the target T4, Glutamate receptor 4. The experiment in a line: Antagonist activity at closed state of GluA4 (unknown origin) assessed as reduction in glutamate-induced current response in presence of 100 uM glutamate.
The target in experiment [18] is T4, Glutamate receptor 4. As to the kind of experiment: Antagonist activity at open state of GluA4 (unknown origin) assessed as reduction in glutamate-induced current response in presence of 3 mM glutamate.
In experiment [19] the target is T1, Glutamate receptor 2. The experiment in a line: Antagonist activity at closed state of GFP-tagged GluA2Qflip isoform (unknown origin) expressed in HEK293S cells assessed as reduction in glutamate-induced current response in presence of 0.1 mM glutamate by whole cell assay. In kind it is cell-based.
Experiment [20] concerns the target T1, Glutamate receptor 2. The experiment in a line: Antagonist activity at open state of GFP-tagged GluA2Qflip isoform (unknown origin) expressed in HEK293S cells assessed as reduction in glutamate-induced current response in presence of 3 mM glutamate by whole cell assay relative to control. In kind it is cell-based.
The target in experiment [21] is T1, Glutamate receptor 2. The experiment in a line: Antagonist activity at closed state of GluA2Qflip isoform (unknown origin) expressed in HEK293 cells assessed as reduction in glutamate-induced current response at 10 uM in presence of 0.1 mM glutamate by whole cell assay relative to control. In kind it is cell-based.
The target of experiment [22] is T1, Glutamate receptor 2. As to the kind of experiment: Antagonist activity at open state of GluA2Qflip isoform (unknown origin) expressed in HEK293 cells assessed as reduction in glutamate-induced current response at 10 uM in presence of 3 mM glutamate by whole cell assay relative to control. In kind it is cell-based.

T1 sequence (P42262 whole entry, canonical isoform): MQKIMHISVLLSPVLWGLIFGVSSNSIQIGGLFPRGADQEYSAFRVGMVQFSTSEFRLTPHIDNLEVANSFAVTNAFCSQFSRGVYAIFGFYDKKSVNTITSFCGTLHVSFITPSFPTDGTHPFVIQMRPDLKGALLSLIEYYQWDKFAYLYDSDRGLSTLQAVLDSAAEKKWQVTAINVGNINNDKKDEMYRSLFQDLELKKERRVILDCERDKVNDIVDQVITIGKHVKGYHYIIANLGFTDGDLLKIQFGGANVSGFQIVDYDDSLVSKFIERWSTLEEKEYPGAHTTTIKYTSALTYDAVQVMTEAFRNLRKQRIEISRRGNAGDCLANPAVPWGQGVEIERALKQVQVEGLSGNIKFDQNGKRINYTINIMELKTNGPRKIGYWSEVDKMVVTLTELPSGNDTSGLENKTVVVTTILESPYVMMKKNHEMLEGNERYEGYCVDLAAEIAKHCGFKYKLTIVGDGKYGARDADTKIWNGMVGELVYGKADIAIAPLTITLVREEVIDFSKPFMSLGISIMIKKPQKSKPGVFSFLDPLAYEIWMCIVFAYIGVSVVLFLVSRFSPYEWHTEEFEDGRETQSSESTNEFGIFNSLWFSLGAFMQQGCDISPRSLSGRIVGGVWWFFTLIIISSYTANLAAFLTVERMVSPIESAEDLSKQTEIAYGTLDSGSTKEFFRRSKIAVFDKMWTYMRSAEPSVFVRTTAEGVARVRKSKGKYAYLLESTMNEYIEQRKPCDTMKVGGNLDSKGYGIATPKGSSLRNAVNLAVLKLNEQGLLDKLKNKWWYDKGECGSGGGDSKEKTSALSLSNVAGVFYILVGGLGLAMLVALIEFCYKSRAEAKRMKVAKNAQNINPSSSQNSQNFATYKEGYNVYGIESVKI

On to `Cc1cc(C2=NN(C3CC(Br)=NO3)C(=O)Cc3cc4c(cc32)OCCO4)cc(C)c1N` (stereo not drawn), for which the fold change (FC) in [1] stood at 1.21; in [2], 1.24.
For `Cc1cc(C2=NN(CC3CC(Br)=NO3)C(=O)Cc3cc4c(cc32)OCCO4)cc(C)c1N` (stereo not drawn), the fold change (FC) in experiment [3] was 1.46; in experiment [4], 0.95; in experiment [7] it was 1.19; in [8] it was 1.39; in [9], 1.09; in experiment [10], 1.18. Further, the values for the fold change (FC) in [11] and in experiment [12] were 1.34 and 1.22, respectively. The inhibition constant (Ki) is 5 µM in [5]; “Not Active” in experiment [6]; 13.2 µM in [13]; 6.4 µM in experiment [14]; 27.8 µM in [15]; 13.9 µM in experiment [16]. Also, the values for the Ki in experiment [17] and in experiment [18] were 7.4 µM and 11.4 µM, respectively.
With `Nc1ccc(C2=NN(C3CC(Br)=NO3)C(=O)Cc3cc4c(cc32)OCCO4)cc1` (stereo not drawn), the fold change (FC) in experiment [3] amounted to 1.75; in experiment [4], 1.18. Further, the inhibition constant (Ki) in experiment [5] was found to be 3 µM; in [6] (read-out: Ki) it was 14 µM.
With `Nc1ccc(C2=NNC(=O)Cc3cc4c(cc32)OCCO4)cc1`, the inhibition constant (Ki) is 21 µM in experiment [19] and 33 µM in experiment [20].
Consider `Cc1cc(C2=NN(C3CC(Br)=NO3)C(=O)Cc3cc4c(cc32)OCCO4)ccc1N` (stereo not drawn), for which the fold change (FC) in experiment [1] came out at 1.01; in experiment [2] it was 1.16.
In the case of `Cc1cc(C2=NNC(=O)Cc3cc4c(cc32)OCCO4)ccc1N`, the values for the Ki in experiment [19] and in [20] were 4 µM and 9 µM, respectively.
For the molecule `Nc1ccc(C2=NN(CC3CC(Br)=NO3)C(=O)Cc3cc4c(cc32)OCCO4)cc1` (stereo not drawn), the fold change (FC) worked out at 1.44 in [1] and 1.09 in [2].
As for `CC1=NN=C(c2ccc(N)cc2)c2cc3c(cc2C1)OCO3` [GYKI-52466], the Ki in experiment [19] amounted to 4 µM; in [20], 5 µM.
As to `Cc1cc(C2=NNC(=O)Cc3cc4c(cc32)OCCO4)cc(C)c1N`, the inhibition constant Ki in experiment [19] turned out to be 94 µM; in experiment [20], 164 µM.
On to `Cc1cc(C2=NN(CC3CC(Br)=NO3)C(=O)Cc3cc4c(cc32)OCCO4)ccc1N` (stereo not drawn), for which the fold change (FC) was 1.23 in [21] and 1.2 in [22]. Also, the Ki in experiment [5] and in experiment [6] (read-out: Ki) was 50 µM throughout.

The values above are taken from ChEMBL document CHEMBL4052654, “Development of novel N-3-bromoisoxazolin-5-yl substituted 2,3-benzodiazepines as noncompetitive AMPAR antagonists” (Bioorg Med Chem, 2017).
